Measured values from patent US20260184710A1, “CASITAS B-LINEAGE LYMPHOMA PROTOONCOGENE B (CBL-B) DEGRADING COMPOUNDS AND ASSOCIATED METHODS OF USE” (Arvinas Operations, Inc., priority 2022, published 2026).

What was measured:
Cbl-b [1] = target: T1, Cbl-b (Homo sapiens, UniProt Q13191); assay: Cbl-b Degradation Method A (FACS, anti-Cbl-b antibody staining); type: cell-based; conditions: Cbl-b-HiBit KI Jurkat Cells, incubated at least 20 hours; for DC50: half maximal degradation, read-out: Cbl-b Degredation Method A IC50; for Dmax: Jurkat, maximum degradation observed, read-out: Cbl-b Degredation Method A Dmax (%)
T1 construct: Cbl-b-HiBit KI Jurkat Cells were purchased from Promega; host or cells: Cbl-b-HiBiT knock-in Jurkat cells
Experimental: Cbl-b Degradation Method A
Cbl-b-HiBit KI Jurkat Cells were purchased from Promega, and cell media consisted of RPMI 1640 with 10% FBS and 1% pen/strep. The cells were counted, measured for viability, and 100 μL of the cell solution was into 96 well flat bottom plates at a ratio of 290,000 cells per 100 μL. Compounds were dissolved in DMSO to make a 10 mM stock solution, which was diluted with cell media. 100 μL of the diluted compound mixture was added to the wells. The plate was incubated for at least 20 hours at 37° C. and 5% CO2. After incubation, the plate was shaken at 700-750 RMP for 15-30 minutes to ensure cells were removed from the wells. The wells were transferred to a 96-well v-bottom plate and spun for 2200 RPM for 3 minutes. The supernatant was removed, cells re-suspended in 100 μL of the fixative, and subsequently incubated at room temperature for 15 minutes. Afterwards, 150 μL of DPBS was added to each well, and the cells were centrifuged at 2500 RPM for 3 minutes. The supernatant was removed and the plate was chilled on ice for 2-3 minutes. While still on the ice, 100 μL of Perm III was added to each well, the wells mixed, and subsequently left on the ice for another 15 minutes. Afterwards, the plate was removed from the ice, 150 μL of DBPS was added to each well, and the cells centrifuged at 2700 RPM for 3 minutes. The supernatant was removed, and an additional 200 μL of was DPBS was added to each well, followed by centrifuging at 2700 RPM for 3 minutes, after which the supernatant was removed. The anti-Cbl-b antibody was diluted 1:200 in 1× Perm Wash buffer and 50 μL of the antibody mixture was added to each well and mixed. After addition, the plate was incubated for 35-45 minutes at room temperature. After incubation, 200 μL of DPBS was added to each wells, and the plate centrifuged at 2700 RPM for 3 minutes, followed by the removal of the supernatant. The washing step was repeated by adding 200 μL of DPBS to each wells followed by centrifuge at 2700 RPM for 3 minutes and removal of the supernatant. The a-Rabbit-AF488 antibody was diluted 1:1000 in Perm Wash buffer, 50 μL of the dilution added to each well, and mixed. After mixing, the plate was incubated for 30 minutes at room temperature in the dark. Subsequently, the supernatant was removed, and 200 μL of DBPS added to the cells, which were then centrifuged at 2900 RPM for 4 minutes. The supernatant was removed, and an additional 95 μL of DBPS was added to the wells and mixed. The cells were then transferred to a round bottom polypropylene plate and analyzed using FACS with the parameters below:
The concentration of an exemplary compound that leads to half maximal degradation (DC50) as well as the maximum degradation observed (Dmax, conventionally expressed as a percentage of control) is shown below in Table 2.

Cbl-b [2] = target: T1, Cbl-b; assay: Cbl-b Degradation Method B (Nano-Glo HiBiT lytic detection); type: cell-based; conditions: Cbl-b-HiBit KI Jurkat Cells, incubated at least 6-24 hours; half maximal degradation; read-out: Cbl-b Degredation Method B IC50
Method in brief: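 Cbl-b-HiBiT knock-in Jurkat cells (20,000/well) were treated after ~24 h plating with an 11-point 1:3 series for 6-24 h at 37° C. Remaining Cbl-b measured by Nano-Glo HiBiT lytic luminescence. DC50 and Dmax expressed as % of control.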

T1 sequence (Q13191 whole entry): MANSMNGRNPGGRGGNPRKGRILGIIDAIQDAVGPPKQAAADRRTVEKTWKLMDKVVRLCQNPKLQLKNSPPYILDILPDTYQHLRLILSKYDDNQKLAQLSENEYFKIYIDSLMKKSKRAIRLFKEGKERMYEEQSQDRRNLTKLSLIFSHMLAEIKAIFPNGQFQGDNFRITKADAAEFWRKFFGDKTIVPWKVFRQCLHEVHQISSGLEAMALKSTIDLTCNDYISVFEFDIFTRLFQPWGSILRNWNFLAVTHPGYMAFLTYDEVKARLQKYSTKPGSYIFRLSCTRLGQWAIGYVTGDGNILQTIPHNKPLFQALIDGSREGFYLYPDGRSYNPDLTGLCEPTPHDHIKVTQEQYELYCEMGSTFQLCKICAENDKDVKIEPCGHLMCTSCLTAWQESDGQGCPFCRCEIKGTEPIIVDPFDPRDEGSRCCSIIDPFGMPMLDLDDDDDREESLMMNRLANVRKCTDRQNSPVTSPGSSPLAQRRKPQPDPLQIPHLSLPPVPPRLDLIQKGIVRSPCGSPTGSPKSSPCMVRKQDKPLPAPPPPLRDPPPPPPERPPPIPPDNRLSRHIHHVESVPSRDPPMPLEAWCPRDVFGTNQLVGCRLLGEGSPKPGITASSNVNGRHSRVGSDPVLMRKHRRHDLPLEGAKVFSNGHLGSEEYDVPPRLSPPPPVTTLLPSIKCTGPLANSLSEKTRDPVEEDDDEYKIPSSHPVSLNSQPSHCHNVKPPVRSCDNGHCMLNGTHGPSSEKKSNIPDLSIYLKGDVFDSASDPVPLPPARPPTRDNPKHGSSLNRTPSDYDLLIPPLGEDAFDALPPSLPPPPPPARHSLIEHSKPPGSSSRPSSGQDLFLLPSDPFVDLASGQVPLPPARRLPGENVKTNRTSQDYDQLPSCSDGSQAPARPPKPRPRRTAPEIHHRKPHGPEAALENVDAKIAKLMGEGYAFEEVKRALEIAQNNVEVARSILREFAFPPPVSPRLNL

| Structure (SMILES) | DC50 (Cbl-b [1]) | Dmax (Cbl-b [1]) | DC50 (Cbl-b [2]) |
| --- | --- | --- | --- |
| Cn1cnnc1CC1(c2cccc(N3Cc4c(cc(CN5CC6(CCN(C[C@H]7CC[C@H](OC8CCN(c9ccc%10c(c9F)CN(C9CCC(=O)NC9=O)C%10=O)CC8)CC7)CC6)C5)cc4C(F)(F)F)C3=O)c2)COC1 (stereo partly shown) [Example 6, 3-[4-fluoro-1-oxo-5-(4-{[(1r, 4r)-4-[(2-{[2-(3-{3-[(4-methyl-4H-1,2,4-triazol-3-yl)methyl]oxetan-3-yl}phenyl)-3-oxo-7-(trifluoromethyl)-2,3-dihydro-1H-isoindol-5-yl]methyl}-2,7-diazaspiro[3.5]nonan-7-yl)methyl]cyclohexyl]oxy}piperidin-1-yl)-2,3-dihydro-1H-isoindol-2-yl]piperidine-2,6-dione] | < 5 nM | > 70% |  |
| Cn1cnnc1CC1(c2cccc(N3Cc4c(cc(N5CC6(CCN(C[C@H]7CC[C@H](OC8CCN(c9ccc%10c(c9F)CN(C9CCC(=O)NC9=O)C%10=O)CC8)CC7)CC6)C5)cc4C(F)(F)F)C3=O)c2)COC1 (stereo partly shown) [Example 7, 3-[4-fluoro-1-oxo-5-(4-{[(1r, 4r)-4-({2-[2-(3-{3-[(4-methyl-4H-1,2,4-triazol-3-yl)methyl]oxetan-3-yl}phenyl)-3-oxo-7-(trifluoromethyl)-2,3-dihydro-1H-isoindol-5-yl]-2,7-diazaspiro [3.5]nonan-7-yl}methyl)cyclohexyl]oxy}piperidin-1-yl)-2,3-dihydro-1H-isoindol-2-yl]piperidine-2,6-dione] | < 5 nM | > 70% |  |
| Cn1cnnc1CC1(c2cccc(N3Cc4c(cc(CN5CC6(CCN(CC7CCN(c8ccc9c(c8F)CN(C8CCC(=O)NC8=O)C9=O)CC7)CC6)C5)cc4C(F)(F)F)C3=O)c2)COC1 (stereo not shown) [Example 25, 3-(4-fluoro-5-{4-[(2-{[2-(3-{3-[(4-methyl-4H-1,2,4-triazol-3-yl)methyl]oxetan-3-yl}phenyl)-3-oxo-7-(trifluoromethyl)-2,3-dihydro-1H-isoindol-5-yl]methyl}-2,7-diazaspiro[3.5]nonan-7-yl)methyl]piperidin-1-yl}-1-oxo-2,3-dihydro-1H-isoindol-2-yl)piperidine-2,6-dione] | 5 to 50 nM | < 35% |  |
| Cn1cnnc1CC1(c2cccc(N3Cc4c(cc(CN5CCCC(N6CCC(CN7CCC(CN8CCN(c9ccc%10c(c9)C(=O)N(C9CCC(=O)NC9=O)C%10=O)CC8)CC7)CC6)C5)cc4C(F)(F)F)C3=O)c2)COC1 (stereo not shown) [Example 109, 2-(2,6-dioxopiperidin-3-yl)-5-[4-({1-[(1′-{[2-(3-{3-[(4-methyl-4H-1,2,4-triazol-3-yl)methyl]oxetan-3-yl}phenyl)-3-oxo-7-(trifluoromethyl)-2,3-dihydro-1H-isoindol-5-yl]methyl}-[1,3′-bipiperidin]-4-yl)methyl]piperidin-4-yl}methyl)piperazin-1-yl]-2,3-dihydro-1H-isoindole-1,3-dione] | < 5 nM | > 70% |  |
| Cn1cnnc1CC1(c2cccc(N3Cc4c(cc(N5CC(CC6CN(c7ccc8c(c7)C(=O)N(C7CCC(=O)NC7=O)C8=O)C6)C5)cc4C(F)(F)F)C3=O)c2)COC1 (stereo not shown) [Example 120, 2-(2,6-dioxopiperidin-3-yl)-5-[3-({1-[2-(3-{3-[(4-methyl-4H-1,2,4-triazol-3-yl)methyl]oxetan-3-yl}phenyl)-3-oxo-7-(trifluoromethyl)-2,3-dihydro-1H-isoindol-5-yl]azetidin-3-yl}methyl)azetidin-1-yl]-2,3-dihydro-1H-isoindole-1,3-dione] | 5 to 50 nM | 35 to 70% |  |
| Cn1cnnc1CC1(c2cccc(N3Cc4c(cc(N5CC(CC6CCN(c7ccc8c(c7)C(=O)N(C7CCC(=O)NC7=O)C8=O)CC6)C5)cc4C(F)(F)F)C3=O)c2)COC1 (stereo not shown) [Example 133, 2-(2,6-dioxopiperidin-3-yl)-5-[4-({1-[2-(3-{3-[(4-methyl-4H-1,2,4-triazol-3-yl)methyl]oxetan-3-yl}phenyl)-3-oxo-7-(trifluoromethyl)-2,3-dihydro-1H-isoindol-5-yl]azetidin-3-yl}methyl)piperidin-1-yl]-2,3-dihydro-1H-isoindole-1,3-dione] | 5 to 50 nM | > 70% |  |
| Cn1cnnc1CC1(c2cccc(N3Cc4c(cc(N5CC6(CCN(C[C@H]7CC[C@H](OC8CCN(c9ccc%10c(c9Cl)CN(C9CCC(=O)NC9=O)C%10=O)CC8)CC7)CC6)C5)cc4C(F)(F)F)C3=O)c2)COC1 (stereo partly shown) [Example 184, 3-[4-chloro-1-oxo-5-(4-{[(1r,4r)-4-({2-[2-(3-{3-[(4-methyl-4H-1,2,4-triazol-3-yl)methyl]oxetan-3-yl}phenyl)-3-oxo-7-(trifluoromethyl)-2,3-dihydro-1H-isoindol-5-yl]-2,7-diazaspiro[3.5]nonan-7-yl}methyl)cyclohexyl]oxy}piperidin-1-yl)-2,3-dihydro-1H-isoindol-2-yl]piperidine-2,6-dione] | < 5 nM | > 70% |  |
| Cc1cc(N2CCC(O[C@H]3CC[C@H](CN4CCC5(CC4)CN(c4cc6c(c(C(F)(F)F)c4)CN(c4cccc([C@]7(Cc8nncn8C)C[C@@H](C#N)C7)c4)C6=O)C5)CC3)CC2)c(F)c2c1C(=O)N(C1CCC(=O)NC1=O)C2 (stereo partly shown) [Example 187, (1r,3r)-3-[(4-methyl-4H-1,2,4-triazol-3-yl)methyl]-3-{3-[1-oxo-6-(7-{[(1r,4r)-4-({1-[2-(2,6-dioxopiperidin-3-yl)-4-fluoro-7-methyl-1-oxo-2,3-dihydro-1H-isoindol-5-yl]piperidin-4-yl}oxy)cyclohexyl]methyl}-2,7-diazaspiro[3.5]nonan-2-yl)-4-(trifluoromethyl)-2,3-dihydro-1H-isoindol-2-yl]phenyl}cyclobutane-1-carbonitrile] | 5 to 50 nM | 35 to 70% |  |
| Cn1cnnc1CC1(c2cccc(-n3cc4c(C(F)(F)F)cc(CN5CCC[C@H](CN6CCC[C@@H](OC7CCN(c8ccc9c(c8F)CN(C8CCC(=O)NC8=O)C9=O)CC7)C6)C5)cc4n3)c2)COC1 (stereo partly drawn) [Example 297, 3-[4-fluoro-5-(4-{[(3R)-1-{[(3S)-1-{[2-(3-{3-[(4-methyl-4H-1,2,4-triazol-3-yl)methyl]oxetan-3-yl}phenyl)-4-(trifluoromethyl)-2H-indazol-6-yl]methyl}piperidin-3-yl]methyl}piperidin-3-yl]oxy}piperidin-1-yl)-1-oxo-2,3-dihydro-1H-isoindol-2-yl]piperidine-2,6-dione] |  |  | > 500 nM |
| Cn1cnnc1CC1(c2cccc(-n3cc4c(C(F)(F)F)cc(CN5CCC[C@@H](CN6CCC(CN7CCN(c8ccc9c(c8F)CN(C8CCC(=O)NC8=O)C9=O)CC7)CC6)C5)cc4n3)c2)COC1 (stereo partly drawn) [Example 298, 3-(4-fluoro-5-{4-[(1-{[(3S)-1-{[2-(3-{3-[(4-methyl-4H-1,2,4-triazol-3-yl)methyl]oxetan-3-yl}phenyl)-4-(trifluoromethyl)-2H-indazol-6-yl]methyl}piperidin-3-yl]methyl}piperidin-4-yl)methyl]piperazin-1-yl}-1-oxo-2,3-dihydro-1H-isoindol-2-yl)piperidine-2,6-dione] |  |  | > 500 nM |
| Cn1cnnc1CC1(c2cccc(-n3cc4c(C(F)(F)F)cc(CN5CCC(CN6CCC(CN7CCN(c8ccc9c(c8F)CN(C8CCC(=O)NC8=O)C9=O)CC7)CC6)CC5)cc4n3)c2)COC1 (stereo not shown) [Example 299, 3-{4-fluoro-5-[4-({1-[(1-{[2-(3-{3-[(4-methyl-4H-1,2,4-triazol-3-yl)methyl]oxetan-3-yl}phenyl)-4-(trifluoromethyl)-2H-indazol-6-yl]methyl}piperidin-4-yl)methyl]piperidin-4-yl}methyl)piperazin-1-yl]-1-oxo-2,3-dihydro-1H-isoindol-2-yl}piperidine-2,6-dione] |  |  | > 500 nM |
